Measurements: ChEMBL document CHEMBL1201862, “PubChem BioAssay data set” (2004)
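Five compound concentrations were applied to cells in 96-well plates for 48 hours; endpoints were derived by simple linear interpolation of the resulting dose-response curve. GI50 is the concentration that inhibits growth by half.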 Activity calls are given as the source filed them. Cut-off read from the data, not from the text of the source: active = GI50 up to about 1.1 µM and inactive = higher.

Columns and labels:
Assay in all cases: NCI-60 cell line screen, 48 h
SW-620 = system: SW-620
HL-60 = system: HL-60
SF-268 = system: SF-268
HOP-62 = system: HOP-62
NCI-H522 = system: NCI-H522
DMS-273 = system: DMS-273
SK-MEL-2 = system: SK-MEL-2
HOP-18 = system: HOP-18
U-251 = system: U-251
LXFL 529 = system: LXFL 529
ACHN = system: ACHN
SNB-19 = system: SNB-19
HOP-92 = system: HOP-92
DU-145 = system: DU-145
SNB-78 = system: SNB-78
MDA-N = system: MDA-N
SK-MEL-28 = system: SK-MEL-28
KM12 = system: KM12
Malme-3M = system: Malme-3M
TK-10 = system: TK-10
HCT-116 = system: HCT-116
DMS-114 = system: DMS-114
LOX IMVI = system: LOX IMVI
NCI/ADR-RES = system: NCI/ADR-RES
NCI-H460 = system: NCI-H460
PC-3 = system: PC-3
RXF 631 = system: RXF 631
786-0 = system: 786-0
OVCAR-5 = system: OVCAR-5
UO-31 = system: UO-31
CAKI-1 = system: CAKI-1
HT-29 = system: HT-29
BT-549 = system: BT-549
UACC-62 = system: UACC-62
EKVX = system: EKVX
RPMI-8226 = system: RPMI-8226
COLO 205 = system: COLO 205
MDA-MB-435 = system: MDA-MB-435
HCT-15 = system: HCT-15
XF498 = system: XF498
NCI-H226 = system: NCI-H226
OVCAR-8 = system: OVCAR-8
SK-MEL-5 = system: SK-MEL-5
HCC 2998 = system: HCC 2998
NCI-H23 = system: NCI-H23
MCF7 = system: MCF7
SR = system: SR
CCRF-CEM = system: CCRF-CEM
KM-20L2 = system: KM-20L2
MDA-MB-231 = system: MDA-MB-231
K562 = system: K562
OVCAR-4 = system: OVCAR-4
A498 = system: A498
SK-OV-3 = system: SK-OV-3
OVCAR-3 = system: OVCAR-3
DLD-1 = system: DLD-1
M19-MEL = system: M19-MEL
UACC-257 = system: UACC-257
A549 = system: A549
MOLT-4 = system: MOLT-4
SN12C = system: SN12C
SF-539 = system: SF-539
SNB-75 = system: SNB-75
RXF 393 = system: RXF 393
SF-295 = system: SF-295
Hs-578T = system: Hs-578T
M14 = system: M14
IGROV-1 = system: IGROV-1

With `COc1ccc(CCc2cc(OC)c(OC)c(OC)c2)cc1` the GI50 (SW-620) was 0.0171 µM (active), the GI50 (HL-60) was 0.014 µM (active) and the GI50 (SF-268) was 0.423 µM (active). The GI50 (HOP-62) was 0.0196 µM (active), the GI50 (NCI-H522) was 0.0195 µM (active) and the GI50 (DMS-273) was < 0.01 µM (active). The GI50 (SK-MEL-2) was 0.146 µM (active), the GI50 (HOP-18) was > 100 µM (inactive) and the GI50 (U-251) was 0.0247 µM (active). The GI50 (LXFL 529) was 0.0552 µM (active), the GI50 (ACHN) was 0.824 µM (active) and the GI50 (SNB-19) was 0.111 µM (active). For the same molecule, the GI50 (HOP-92) was 0.805 µM (active), the GI50 (DU-145) was 0.0935 µM (active) and the GI50 (SNB-78) was 0.0169 µM (active). The GI50 (MDA-N) was < 0.01 µM (active), the GI50 (SK-MEL-28) was 0.183 µM (active) and the GI50 (KM12) was 0.0118 µM (active). For the same molecule, the GI50 (Malme-3M) was 0.271 µM (active), the GI50 (TK-10) was 2.64 µM (inactive) and the GI50 (HCT-116) was 0.0214 µM (active). For the same molecule, the GI50 (DMS-114) was 0.0248 µM (active), the GI50 (LOX IMVI) was 0.0372 µM (active) and the GI50 (NCI/ADR-RES) was 0.0622 µM (active). The GI50 (NCI-H460) was 0.0277 µM (active), the GI50 (PC-3) was 0.043 µM (active) and the GI50 (RXF 631) was < 0.0166 µM (active). For the same molecule, the GI50 (786-0) was 0.15 µM (active), the GI50 (OVCAR-5) was 0.456 µM (active) and the GI50 (UO-31) was 1.95 µM (inactive). The GI50 (CAKI-1) was 0.0206 µM (active), the GI50 (HT-29) was 0.0235 µM (active) and the GI50 (BT-549) was 2.32 µM (inactive). The GI50 (UACC-62) was 0.0165 µM (active), the GI50 (EKVX) was 1.18 µM (inactive) and the GI50 (RPMI-8226) was 0.0309 µM (active). The GI50 (COLO 205) was 0.0191 µM (active), the GI50 (MDA-MB-435) was < 0.01 µM (active) and the GI50 (HCT-15) was 0.0169 µM. The GI50 (XF498) was < 0.01 µM (active), the GI50 (NCI-H226) was 0.386 µM (active) and the GI50 (OVCAR-8) was 0.1 µM (active). The GI50 (SK-MEL-5) was 0.0212 µM (active), the GI50 (HCC 2998) was 0.0568 µM (active) and the GI50 (NCI-H23) was 0.0743 µM (active). The GI50 (MCF7) was 0.0283 µM (active), the GI50 (SR) was < 0.01 µM (active) and the GI50 (CCRF-CEM) was 0.0204 µM (active). For the same molecule, the GI50 (KM-20L2) was 0.0128 µM (active), the GI50 (MDA-MB-231) was 0.296 µM (active) and the GI50 (K562) was 0.012 µM (active). For the same molecule, the GI50 (OVCAR-4) was 5.05 µM (inactive), the GI50 (A498) was < 0.0207 µM (active) and the GI50 (SK-OV-3) was 0.0236 µM (active). The GI50 (OVCAR-3) was 0.02 µM (active), the GI50 (DLD-1) was < 0.01 µM (active) and the GI50 (M19-MEL) was < 0.0226 µM (active). The GI50 (UACC-257) was 0.544 µM (active), the GI50 (A549) was 0.0403 µM (active) and the GI50 (MOLT-4) was 0.0331 µM (active). The GI50 (SN12C) was 0.114 µM (active), the GI50 (SF-539) was 0.0258 µM (active) and the GI50 (SNB-75) was 0.0395 µM (active). The GI50 (RXF 393) was 0.0205 µM (active), the GI50 (SF-295) was 0.0178 µM (active) and the GI50 (Hs-578T) was 0.0438 µM (active). For the same molecule, the GI50 (M14) was 0.0318 µM (active) and the GI50 (IGROV-1) was 0.0612 µM (active).
In the case of `C/C=C/C[C@@H](C)[C@@H](O)[C@H]1C(=O)N[C@@H](CC)C(=O)N(C)CC(=O)N(C)[C@@H](CC(C)C)C(=O)N[C@@H](C(C)C)C(=O)N(C)[C@@H](CC(C)C)C(=O)N[C@@H](C)C(=O)N[C@H](C)C(=O)N(C)[C@@H](CC(C)C)C(=O)N(C)[C@@H](CC(C)C)C(=O)N(C)[C@@H](C(C)C)C(=O)N1C` [CYCLOSPORINE], the GI50 (SW-620) is reported as 11.2 µM (inactive), the GI50 (HL-60) is reported as 2.25 µM (inactive) and the GI50 (SF-268) is reported as 7.26 µM (inactive). The GI50 (HOP-62) was 3.91 µM (inactive), the GI50 (NCI-H522) was 5.48 µM (inactive) and the GI50 (DMS-273) was 4.7 µM (inactive). For the same molecule, the GI50 (SK-MEL-2) was 3.17 µM (inactive), the GI50 (HOP-18) was 11.1 µM (inactive) and the GI50 (U-251) was 7.66 µM (inactive). The GI50 (LXFL 529) was 6.89 µM (inactive), the GI50 (ACHN) was 5.5 µM (inactive) and the GI50 (SNB-19) was 10.5 µM (inactive). The GI50 (HOP-92) was 4.65 µM (inactive), the GI50 (SNB-78) was 4.98 µM (inactive) and the GI50 (SK-MEL-28) was 5.68 µM (inactive). For the same molecule, the GI50 (KM12) was 5.94 µM (inactive), the GI50 (Malme-3M) was 7.45 µM (inactive) and the GI50 (TK-10) was 7.82 µM (inactive). For the same molecule, the GI50 (DMS-114) was 3.7 µM (inactive), the GI50 (LOX IMVI) was 2.43 µM (inactive) and the GI50 (NCI-H460) was 3.87 µM (inactive). The GI50 (RXF 631) was 1.98 µM (inactive), the GI50 (786-0) was 12.8 µM (inactive) and the GI50 (OVCAR-5) was 6.93 µM (inactive). The GI50 (UO-31) was 3.26 µM (inactive), the GI50 (CAKI-1) was 6.98 µM (inactive) and the GI50 (HT-29) was 2.29 µM (inactive). The GI50 (UACC-62) was 3.85 µM (inactive), the GI50 (EKVX) was 10.4 µM (inactive) and the GI50 (RPMI-8226) was 2.48 µM (inactive). For the same molecule, the GI50 (COLO 205) was 1.77 µM (inactive), the GI50 (HCT-15) was 4.48 µM and the GI50 (XF498) was 3.96 µM (inactive). The GI50 (NCI-H226) was 4.39 µM (inactive), the GI50 (OVCAR-8) was 12.2 µM (inactive) and the GI50 (SK-MEL-5) was 3.78 µM (inactive). The GI50 (HCC 2998) was 2.15 µM (inactive), the GI50 (NCI-H23) was 5.37 µM (inactive) and the GI50 (SR) was 1.47 µM (inactive). The GI50 (CCRF-CEM) was 3.08 µM (inactive), the GI50 (KM-20L2) was 2.97 µM (inactive) and the GI50 (K562) was 3.99 µM (inactive). For the same molecule, the GI50 (OVCAR-4) was 4.18 µM (inactive), the GI50 (A498) was 4.95 µM (inactive) and the GI50 (OVCAR-3) was 3.8 µM (inactive). For the same molecule, the GI50 (DLD-1) was 5.32 µM (inactive), the GI50 (M19-MEL) was 2.37 µM (inactive) and the GI50 (UACC-257) was 2.05 µM (inactive). For the same molecule, the GI50 (A549) was 5.25 µM (inactive), the GI50 (MOLT-4) was 2.98 µM (inactive) and the GI50 (SN12C) was 3.95 µM (inactive). The GI50 (SF-539) was 4.3 µM (inactive), the GI50 (SNB-75) was 7.21 µM (inactive) and the GI50 (RXF 393) was 7.45 µM (inactive). For the same molecule, the GI50 (SF-295) was 2.79 µM (inactive), the GI50 (M14) was 2.61 µM (inactive) and the GI50 (IGROV-1) was 5.24 µM (inactive).
